Data on one compound can be found in ChEMBL document CHEMBL5506049, “Discovery of Novel Small-Molecule-Based Potential PD-L1/EGFR Dual Inhibitors with High Druggability for Glioblastoma Immunotherapy” (J Med Chem, 2024).

A short description of data set [1]: Toxicity in C57BL/6 mouse xenografted with […] GL261 cells assessed as cell necrosis in spleen at 100 mg/kg, IG treated for 21 days by hematoxylin-eosin staining based microscopy assay. The following applies: in vivo, po, 504 h, time 21 day. The class given is organism-based. On the technique in general: In xenograft studies the graft and the host belong to different species.

Data set [2] in a line: Clearance in Sprague-Dawley rat at 20 mg/kg, po measured upto 72 hrs by (LC-MS)/MS analysis. The class given is ADME, organism-based. Particulars: in vivo.
Data set [3] can be described thus: Half life in Sprague-Dawley rat at 4 mg/kg, iv measured upto 72 hrs by (LC-MS)/MS analysis. The class given is ADME, organism-based. Particulars: in vivo.
The subject of data set [4] is GL261. In words: In vivo antitumor activity against […] GL261 cells xenografted in intragastrically dosed C57BL/6 mouse assessed as decrease in tumor size treated for 21 days relative to control. The class given is functional, organism-based. The following applies: route ig, time 21.0 day.
The test system of data set [5] is U-87 MG. In words: Induction of cell cycle arrest in human U-87 MG cells assessed as accumulation of cells at G0/G1 phase at 0.5 uM incubated for 48 hrs by flow cytometry (reference value: 60.51%). The class given is functional, U-87MG ATCC. In general terms: In flow cytometry, cells or beads pass a laser one at a time.
Data set [6] can be described thus: Toxicity in C57BL/6 mouse xenografted with […] GL261 cells assessed as cell necrosis in lung at 100 mg/kg, IG treated for 21 days by hematoxylin-eosin staining based microscopy assay. The class given is organism-based. Particulars: in vivo, po, 504 h, time 21 day.
Data set [7] concerns U-87 MG. In words: Induction of cell cycle arrest in human U-87 MG cells assessed as decrease in accumulation of cells at S phase at 1 uM incubated for 48 hrs by flow cytometry (reference value: 30.36%). The class given is functional, U-87MG ATCC. Also noted: scale not given: the % may be the effect or the level left.
A short description of data set [8]: AUC (0 to infinity) in Sprague-Dawley rat at 4 mg/kg, iv measured upto 72 hrs by (LC-MS)/MS analysis. The following applies: in vivo. The class given is ADME, organism-based.
The nature of data set [9]: Half life in Sprague-Dawley rat at 20 mg/kg, po measured upto 72 hrs by (LC-MS)/MS analysis. The class given is ADME, organism-based. Particulars: in vivo.
Data set [10] has as its system Glioblastoma cell line. The data set can be described thus: Antitumor immunity against glioblastoma bearing C57BL/6 mouse model assessed as tumor infiltrating lymphocytes by measuring increase in CD3+CD4+T cells at 100 mg/kg, IG (reference value: 0.91%). The class given is functional.
Data set [11] is described as follows: Volume of distribution in Sprague-Dawley rat at 20 mg/kg, po measured upto 72 hrs by (LC-MS)/MS analysis. The class given is ADME, organism-based. Particulars: in vivo.
Data set [12] can be described thus: Toxicity in C57BL/6 mouse xenografted with […] GL261 cells assessed as cell necrosis in liver at 100 mg/kg, IG treated for 21 days by hematoxylin-eosin staining based microscopy assay. The class given is organism-based. The following applies: in vivo, po, 504 h, time 21 day.
Data set [13] can be described thus: Toxicity in C57BL/6 mouse xenografted with […] GL261 cells assessed as cell necrosis in kidney at 100 mg/kg, IG treated for 21 days by hematoxylin-eosin staining based microscopy assay. The following applies: in vivo, po, 504 h, time 21 day. The class given is organism-based.
The nature of data set [14]: Toxicity in C57BL/6 mouse xenografted with […] GL261 cells assessed as cell necrosis in heart at 100 mg/kg, IG treated for 21 days by hematoxylin-eosin staining based microscopy assay. The class given is organism-based. Particulars: in vivo, po, 504 h, time 21 day.
The nature of data set [15]: Clearance in Sprague-Dawley rat at 4 mg/kg, iv measured upto 72 hrs by (LC-MS)/MS analysis. The class given is ADME, organism-based. The following applies: in vivo.
Data set [16] is described as follows: cells. Particulars: Homo sapiens, U87MG Human EGFR vIII, 72 h.
Description: Antiproliferative activity against human U87vIII cells expressing EGFRvIII incubated for 72 hrs by MTT assay

Consider `COc1cc2ncnc(Nc3cccc(Cl)c3F)c2cc1OCCCCNCc1c(OC)cc(OCc2cccc(-c3ccccc3)c2C)cc1OC`, for which the Activity entry in data set [1] was “Non-Toxic”; in [4], “Dose-Dependent Effect”; in data set [5], 63.57%; in data set [6], “Non-Toxic”; in [7] it was 22.89%; in data set [10], 3.74%. Moreover, the Activity result in [12], in data set [13] and in data set [14] was “Non-Toxic” in each case. Moreover, the CL/F (as a rule, the apparent clearance, not corrected for the fraction that reaches the circulation) in data set [2] is 107 mL/min/kg. Moreover, the half-life (in general, how long it takes for the measured level to halve) in data set [3] is 6.8 h; in [9], 13 h. Further, the AUC(0-inf) (commonly the area under the concentration-time curve extrapolated to infinity) in data set [8] came to 2910 ng·h/mL. The Vd in [11] came to 123.5 L/kg. Besides, the clearance (usually a measure of how efficiently the substance is removed, as volume per time) in data set [15] is 25 mL/min/kg. The IC50 (in general, the concentration needed to halve the response being measured) in data set [16] was 280 nM.
